In US10758634B2, “Compounds, compositions and associated methods using zirconium-89 in immuno-positron emission tomography” (Wake Forest University, priority 2016, dated 2020):
Entries after “also recorded” stand apart in the source; their conditions may differ.

Tests used:
[1] = Metal competition studies (demetallation by excess metal salts); format: physicochemical; conditions: for complex remaining intact: 7 days
Description: Tetraazamacrocycles can chelate numerous, biologically relevant metal cations, and this property can potentially create a second mechanism for ^89Zr^4+ dissociation from its chelator in vivo. To assess the ability of the Zr-complexes to resist demetallation by another metal cation, metal competition studies were performed, in which the radiometal complex was mixed with an excess concentration of metal salts.

[2] = EDTA challenge, in vitro stability (radio-TLC); format: physicochemical; conditions: for order of ^89Zr complex stability: based upon EDTA challenge studies
Description: Lipophilicity (Log P) will be determined using the water:octanol method. Briefly, the water:octanol (1:1) solution containing the ^89Zr-complex (0.19 MBq) will be vortexed (5 min) and then centrifuged (5 minutes at 17,000 rpm). After separation, aliquots from each layer will be counted separately in the gamma counter, and Log P will be calculated as the ratio of counts in the octanol fraction to counts in the aqueous fraction. […] The different pH environments will be meant to reflect the pH environments in normal blood (pH 7) or the lysosome (pH 5). Samples will be analyzed over the course of 7 days using radio-TLC and radio-HPLC.
Based upon our EDTA challenge studies, the order of ^89Zr complex stability can be described as ^89Zr-DOTA>>^89Zr-DOTP>^89Zr-DOTAM>^89Zr-DFO.

[3] = DTPA challenge, in vitro stability (radio-TLC); format: physicochemical; conditions: 50 mM DTPA, n = 3
Description: (§1) Lipophilicity (Log P) will be determined using the water:octanol method. Briefly, the water:octanol (1:1) solution containing the ^89Zr-complex (0.19 MBq) will be vortexed (5 min) and then centrifuged (5 minutes at 17,000 rpm). After separation, aliquots from each layer will be counted separately in the gamma counter, and Log P will be calculated as the ratio of counts in the octanol fraction to counts in the aqueous fraction. In vitro stability will be determined by incubating each ^89Zr complex at 37° C. in the presence 500 μL of DTPA (50 mM, pH 7 or pH 5), 500 μL of EDTA (50 mM, pH 7 or pH 5), or 500 μL of human serum (at 37° C.). The different pH environments will be meant to reflect the pH environments in normal blood (pH 7) or the lysosome (pH 5). Samples will be analyzed over the course of 7 days using radio-TLC and radio-HPLC.

[4] = Human serum stability (radio-TLC/ITLC, size exclusion chromatography); format: in vitro ADME; conditions: for In vitro stability (Radio-TLC): Serum, n = 3; for degradation in human serum (radio-ITLC): human serum proteins, 7 days at 37° C.
Description: as §1
To further characterize the stability of Zr-tetraazamacrocycle complexes and preliminarily assess their suitability for in vivo applications, each radiometal complex was incubated with human serum proteins for 7 days at 37° C.
Any ^89Zr transchelated to serum proteins is expected to be complexed by EDTA and move to the solvent front in this system.

[5] = Acute in vivo biodistribution of ^89Zr-complexes in normal mice; design: species or system NIH Swiss mice; conditions: for radioactivity retention in bone tissue over time: up to 72 h
Description: NIH Swiss mice (n=6/time point) will be injected with the ^89Zr-AMC (0.56 MBq (15 μCi)), and then sacrificed at 1, 4, 24, 48 and 72 h post-injection (p.i.). Organs of interest will be removed, weighed and counted on a gamma counter. Percent injected dose per gram (% ID/g) and percent injected dose per organ (% ID/organ) will be counted and compared to a weighed, counted standard for all groups.
The in vivo stability of ^89Zr-DOTA, ^89Zr-DOTP, and ^89Zr-DOTAM were then evaluated in acute biodistribution studies using female NIH Swiss mice (6-8 wk old, n=6). […] While surfactant was used in the injection formulation for biodistribution studies, it is hypothesized that once in the blood stream, ^89Zr-DOTAM aggregates with serum proteins, which are deposited in these tissues during circulation.

[6] = Small animal PET imaging in normal mice; format: in vivo; conditions: for radioactivity at 4 h (static PET): 4 h after injection; for radioactivity at 24 h (static PET): 24 h after injection; for excretion route (PET): mouse, in vivo
Description: Small animal PET/CT imaging will be conducted on the ^89Zr-AMCs identified from studies described above and in vivo biodistribution studies. NIH Swiss mice (n=6/cohort) will be injected with either ^89ZrCl4, ^89Zr-DFO (11 MBq (300 μCi)) or ^89Zr-AMC and imaged using 1 h dynamic scanning followed by static imaging at 4, 24, 48 h and 72 h p.i. […] All PET images will be co-registered with CT, to (a) allow more accurate selection of regions of interest to correspond with anatomy described by CT, and (b) reduce inaccuracies that result from partial volume effects, which can result in falsely low standard uptake values (SUVs) during data analysis. SUVs and the corresponding % ID/g will be determined from the co-registered PET/CT images using the formula SUV=[nCi/cc×animal weight/injected dose], and correlated to the biodistribution data.
Normal mice were injected with ^89Zr-DFO and ^89Zr-DOTA and dynamic PET imaging done from 0-60 minutes, followed by static imaging at 2, 4, and 24 hours after injection.

[7] = EDTA challenge, in vitro stability (radio-TLC); format: physicochemical; conditions: 50 mM EDTA, pH 5.5, n = 3
[8] = In vitro solution behaviour (aggregation/precipitation); format: physicochemical; conditions: unless a low concentration of surfactant was included
[9] = Lipophilicity (log P), water/octanol partition method; format: physicochemical
Description: as §1

Row | Compound | order of ^89Zr complex stability [2] | In vitro stability (Radio-TLC) ([3]; pH 5.5, 1 h) [%] | In vitro stability (Radio-TLC) ([3]; pH 5.5, 7 d) [%] | In vitro stability (Radio-TLC) ([3]; pH 7.0, 1 h) [%] | In vitro stability (Radio-TLC) ([3]; pH 7.0, 7 d) [%] | In vitro stability (Radio-TLC) ([4]; 1 h) [%] | In vitro stability (Radio-TLC) ([4]; 7 d) [%] | degradation in human serum (radio-ITLC) [4] | blood clearance ([5]; normal mice, n=6/group) | radioactivity retention in bone tissue over time [5] | radioactivity at 4 h (static PET) [6] | radioactivity at 24 h (static PET) [6] | excretion route (PET) [6] | In vitro stability (Radio-TLC) ([7]; 1 h) [%] | In vitro stability (Radio-TLC) ([7]; 7 d) [%] | Lipophilicity (log P) [9] | also measured
1 | CC(=O)N([O-])CCCCCNC(=O)CCC(=O)N([O-])CCCCCNC(=O)CCC(=O)N([O-])CCCCCN.[89Zr+4] [^89Zr-DFO, reference compound] | ^89Zr-DOTA>>^89Zr-DOTP>^89Zr-DOTAM>^89Zr-DFO | 7.3 ± 0.8 | 0 | 90.3 ± 0.5 | 40.6 ± 0.5 | 100 | 99.3 ± 0.1 | no noticeable degradation | rapid blood clearance | increases over time | more radioactivity accumulated in the kidneys | still visible in static images | excreted renally | 6.3 ± 0.8 | 0 | – | complex remaining intact ([1]; challenged with Fe^3+): 33.9%; complex remaining intact ([1]; challenged with Ga^3+): 72.6%; loss of metal ions in EDTA challenge ([2]; 1000-fold excess of EDTA, after 3 h): completely lost metal ions
2 | NC(=O)CN1CCN(CC(N)=O)CCN(CC(N)=O)CCN(CC(N)=O)CC1.[89Zr+4] [^89Zr-DOTAM] | ^89Zr-DOTA>>^89Zr-DOTP>^89Zr-DOTAM>^89Zr-DFO | – | – | – | – | – | – | no noticeable degradation | – | – | – | – | – | – | – | – | behaviour in solution in vitro [8]: aggregated and precipitated out of solution; radioactivity retained in liver and spleen ([5]; female NIH Swiss mice, not excreted over 72 hour time course): retained elevated levels of radioactivity in liver and spleen tissues
3 | O=C([O-])CN1CCN(CC(=O)[O-])CCN(CC(=O)[O-])CCN(CC(=O)[O-])CC1.[89Zr+4] [^89Zr-DOTA] | ^89Zr-DOTA>>^89Zr-DOTP>^89Zr-DOTAM>^89Zr-DFO | 100 | 100 | 100 | 100 | 100 | 100 | no noticeable degradation | rapid blood clearance | remained low with no statistically significant changes at any time point | nearly all the radioactivity was excreted | barely above background levels | excreted renally | 100 | 100 | most hydrophilic characteristics | demetallation in metal competition ([1]; excess concentration of metal salts, 7-day experiment): No demetallation; transchelation in EDTA challenge ([2]; 100-, 500-, and 1000-fold excess of EDTA at pH 5 or pH 7 over 7 days): did not experience transchelation; reduction in radioactivity accumulation in the liver, kidney, and bone ([5]; 72 hours, pilot data): ≥ 10%; radioactivity retained in blood, liver, kidney and bone compared to ^89Zr-DOTP ([5]; intravenous injection): retained significantly less radioactivity in their blood, liver, kidney and bone tissue; radioactivity retained in liver, kidney and bone compared to ^89Zr-DFO ([5]; normal mice, n=6/group): lower radioactivity retention in liver, kidney, and bone tissues; also recorded: retained less radioactivity in the liver, kidney and bone; radioactivity in kidney and bone compared to ^89Zr-DFO (PET) ([6]; dynamic PET 0-60 minutes): much lower
4 | O=P([O-])(O)CN1CCN(CP(=O)([O-])O)CCN(CP(=O)([O-])O)CCN(CP(=O)([O-])O)CC1.[89Zr+4] [^89Zr-DOTP] | ^89Zr-DOTA>>^89Zr-DOTP>^89Zr-DOTAM>^89Zr-DFO | – | – | – | – | – | – | no noticeable degradation | – | – | – | – | – | – | – | most hydrophilic characteristics | bone retention compared to ^89Zr-DFO ([5]; n=6/group): Bone retention is higher; radioactivity retained in liver and kidney compared to ^89Zr-DFO ([5]; n=6/group): retained less radioactivity in the liver and kidney
5 | [Cl][89Zr]([Cl])([Cl])[Cl] [^89ZrCl4, reference compound] | – | – | – | – | – | – | – | – | – | – | – | – | – | – | – | – | association with serum proteins (size exclusion chromatography) ([4]; unchelated ^89Zr control): found to be associated with serum proteins
